Assay results published in US6365173B1, “Stereocomplex polymeric carriers for drug delivery” (Efrat Biopolymers Ltd., priority 1999, dated 2002).

What was measured:
Assay type in all cases: physicochemical
[1] = In vitro release of leuprolide from D-PLA/L-PLA complex powder; conditions: in 40 days; 4 mg leuprolide acetate in D-PLA/L-PLA complex powder; phosphate buffer pH 7.4 at 37° C.
Description: Preparation of complex: Solutions of leuprolide acetate in acetonitrile (4 mg) and D-PLA, (58 mg, Mw=100,000) and L-PLA (38 mg, Mw=30,000) in acetonitrile were mixed together (total 5 ml) and allowed to stir for 3 days at 50° C. The precipitated powder was isolated by filtration to yield 98 mg of 1 micron size porous particles. No leuprolide remained in the acetonitrile solution.
In vitro release was conducted in phosphate buffer pH 7.4 at 37° C. Leuprolide concentration was determined by HPLC (acetonitrile:water, C18 column, 1 ml/min). About 37% of the drug was released constantly in 40 days.

[2] = Release of lidocaine from compression molded stereocomplex devices in buffer; conditions: compression molded D-PLA/L-PLA stereocomplex (200 mg, Mw=30,000) with lidocaine (20 mg); buffer solution pH 7.4 at 37° C.
Description: A fine powder of the nano-discs stereocomplexed of D-PLA and L-PLA and their complexes which were of flat shapes of discs, rods, and triangles, as analyzed in Example 3, provided a unique opportunity for the preparation of drug delivery devices. Devices were prepared by compression molding of these nanoscale structures with drugs.
The disintegration time and the release of the incorporated drug in buffer solutions was slower than the compression molded devices of the corresponding regular polymers. The regular polymer powders are difficult to obtain and their properties are erratic, since they are prepared by precipitation in non-aqueous solvent and grinding at a temperature below the glass transition temperature which provides irregular particle size and shape. The particles formed by stereocomplex formation are of well-defined flat crystallites that are easy to compression mold.
In a typical experiment, disc (10×2 mm) and rod shape (4×10 mm) devices were prepared by mixing the stereocomplex powder of D-PLA and L-PLA (200 mg, Mw=30,000) with lidocaine (20 mg) and compression molding into discs of […] size.
Lidocaine was released constantly for 30 days when placed in buffer solution p H7.4 at 37° C.

[3] = MTX release from PLA stereocomplex tablets in phosphate buffer; conditions: first 10 days; 10 ml pH 7.4 phosphate buffer at 37° C., shaking 150 RPM
Description: Formulations: MTX was incorporated in a stereocomplex of D-PLA/L-PLA (Mw=30,000) prepared by precipitation in acetonitrile. The drug in the form of a powder was mixed with the stereocomplex in the form of a powder, and the mixture compression molded to form tablets. Alternatively, the stereocomplex and MTX were dissolved in dichloromethane, and solvent evaporated to yield a fine powder. For comparison, a solution of random amorphic DL-PLA (Mw=30,000) and MTX was evaporated to dryness to yield a clear flexible and strong yellow film which could be formed into a powder through the use of liquid nitrogen.
In a typical experiment, 300 mg of PLA 1:1 stereocomplex was dissolved in dichloromethane. MTX (5% w/w) was added to the solution, and the mixture was vortexed for two minutes. The solvent was evaporated with a nitrogen stream, to yield a very fine powder. […] Discs were prepared by compression molding of the MTX—stereocomplex power (100 mg) using a stainless steel mold (internal diameter 10 mm) and a Carver Press at 10 tons. Alternatively, 300 mg of PLA 1:1 stereocomplex fine powder (average particle size 2.2 microns was mixed with MTX (150 mg) and the uniform powder was compressed into tablets of 200 mg each.
MTX release was conducted in 10 ml of pH 7.4 phosphate buffer at 37° C. with constant shaking of 150 RPM. […]

[4] = Ibuprofen release from D-PLA-HSA stereocomplex tablets in phosphate buffer; conditions: ibuprofen (100 mg) with D-PLA-HSA or D-PLA-L-PLA-HSA (500 mg), 300 mg tablets; phosphate buffer at physiological pH 37° C.
Description: The precipitate of D-PLA-HSA prepared as described in Example 9 was also used as a matrix carrier for the delivery of small drugs. In a typical experiment, a fine powder of ibuprofen (100 mg) was mixed with the D-PLA-HSA or D-PLA-L-PLA-HSA (500 mg) and the powder was compressed into tablets of 300 mg each. The tablets released the ibuprofen for one week when placed in phosphate buffer at physiological pH 37° C. In similar experiments, other proteins were stereocomplexed with PLA enantiomers including fibrin, fibrinogen, collagen and gelatin.

[5] = LHRH release from PLA stereocomplex powders in phosphate buffer (syringe method, HPLC); conditions: nanosize complexes of LHRH with D-PLA, precipitated in hot acetonitrile
Description: The analysis of LHRH was conducted using the following HPLC method: Mobile phase comprised 30% acetonitrile, 70% TEAP (triethylammoniumphosphate) buffer […] pH-3. Column comprised Lichrosphere RP-18 […] (MERCK); Detector. UV 278 nm and flow rate at 1 ml/min.
All samples were filtered through a 2μ filter. One drop of phosphoric acid was added to the sample solutions before injection. The retention time for LHRH was 6.5 minutes and a calibration curve was generated (r2=0.999).
Since the powder of the LHRH in the stereocomplex is very thin, all the attempts to sink it at the release medium failed. The release was conducted in the following way: 100 mg of the powder in 5 ml phosphate buffer were added to a 10 ml syringe. The edge of the syringe was sealed and constantly shaken at a rate of 150 RPM and a temperature of 37° C. At each interval of time, the syringe was inverted so that the solid floated at the top of the buffer and all of the buffer was pushed out of the syringe in a dropwise fashion. Using this technique, the powders of LHRH in PLA stereocomplex (formulations a-e) were analyzed against a control blank of PLA stereocomplex (no drug).

[6] = TRH release from D-PLA complex powder in phosphate buffer; conditions: D-PLA complex powder (10% w/w TRH) dispersed in phosphate buffer pH7.4 at 37° C.
Description: TRH is a tripeptide with the following structure: pL-Glu-L-His-L-Pro_NH2. 250 mg of D-PLA (Mw=30,000 or Mw=6,000) were mixed with 25 mg (10% w/w) of TRH in 10 ml acetonitrile at 60° C. The solution became clear after 15 minutes and remained clear for 72 hours, at which point precipitate formed. The solution was very turbid, but could not be filtered at room temperature due to the fine particle size of the precipitate. After cooling at 0° C. over night, the precipitate was filtered. The TRH concentration in the acetonitrile solution and in the powder was analyzed as described above using the Lowry method for peptide analysis. Over 90% of the drug was determined to be in the powder and a negligible amount of the drug was found in the acetonitrile solution. When dispersed in phosphate buffer pH7.4 at 37° C., TRH was constantly released for 6 weeks.

For `CCNC(=O)[C@@H]1CCCN1C(=O)[C@H](CCCNC(=N)N)NC(=O)[C@H](CC(C)C)NC(=O)[C@@H](CC(C)C)NC(=O)[C@H](Cc1ccc(O)cc1)NC(=O)[C@H](CO)NC(=O)[C@H](Cc1c[nH]c2ccccc12)NC(=O)[C@H](Cc1c[nH]cn1)NC(=O)[C@@H]1CCC(=O)N1` [Leuprolide, leuprolide acetate], the “drug (leuprolide) released constantly” value [1] was “About 37%”.
For `CCN(CC)CC(=O)Nc1c(C)cccc1C` [Lidocaine, lidocaine], the “time over which lidocaine was released constantly” value [2] was 30 days.
For `CN(Cc1cnc2nc(N)nc(N)c2n1)c1ccc(C(=O)N[C@@H](CCC(=O)O)C(=O)O)cc1` [MTX, Methotrexate], the “MTX constantly released from the PLA stereocomplex” value [3] was “About 30%”.
With `CC(C)Cc1ccc(C(C)C(=O)O)cc1` (stereo not drawn) [ibuprofen] the “time over which the tablets released ibuprofen” value [4] was “one”.
In the case of “Leutinizing Hormone Releasing Hormone [LHRH]”, the “time over which LHRH was constantly released from nanospheres” value [5] is reported as “over 3 weeks”.
For pL-Glu-L-His-L-Pro_NH2 [TRH], the “time over which TRH was constantly released” value [6] was 6 weeks.
